Assays:
WT BTK protein = target: T1, WT BTK protein (Homo sapiens, UniProt Q06187); experiment: BTK protein degradation assay (Western blotting), WT BTK; format: cell-based; conditions: concentration range accounting for 50% degradation of WT BTK protein, TMD-8 or RAMOS cells, 24 hours
T1 construct: measured for intracellular BTK protein levels by Western blotting; endogenous in cells; host or cells: TMD-8 or RAMOS cells
How it was run: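 BTK levels were read by Western blotting (GAPDH and β-actin normalisers) in RIPA lysates of TMD-8 cells exposed to compounds for 24 h at 1×10^6 cells/mL. Results scored in ranges of the concentration producing 50% loss of WT BTK.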

C481S BTK protein = target: T2, C481S BTK protein (Homo sapiens, UniProt Q06187, C481S); experiment: BTK protein degradation assay (Western blotting), C481S BTK; format: cell-based; conditions: concentration range accounting for 50% degradation of C481S BTK protein, 293T BTK MUT (C481S) cells
T2 construct: expressed in transfected cells; host or cells: 293T BTK MUT (C481S) cells
How it was run: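 TMD-8, RAMOS or 293T BTK C481S cells were treated 24 h with compounds from 10-fold DMSO stock series (10 to 0.0001 mM). BTK was measured by Western blot with GAPDH/β-actin references. Activity was binned by concentration giving 50% degradation: +++ (0.0001-0.01 μM), ++ (0.01-1 μM), + (1-10 μM), − (>10 μM).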

T1 sequence (Q06187 whole entry): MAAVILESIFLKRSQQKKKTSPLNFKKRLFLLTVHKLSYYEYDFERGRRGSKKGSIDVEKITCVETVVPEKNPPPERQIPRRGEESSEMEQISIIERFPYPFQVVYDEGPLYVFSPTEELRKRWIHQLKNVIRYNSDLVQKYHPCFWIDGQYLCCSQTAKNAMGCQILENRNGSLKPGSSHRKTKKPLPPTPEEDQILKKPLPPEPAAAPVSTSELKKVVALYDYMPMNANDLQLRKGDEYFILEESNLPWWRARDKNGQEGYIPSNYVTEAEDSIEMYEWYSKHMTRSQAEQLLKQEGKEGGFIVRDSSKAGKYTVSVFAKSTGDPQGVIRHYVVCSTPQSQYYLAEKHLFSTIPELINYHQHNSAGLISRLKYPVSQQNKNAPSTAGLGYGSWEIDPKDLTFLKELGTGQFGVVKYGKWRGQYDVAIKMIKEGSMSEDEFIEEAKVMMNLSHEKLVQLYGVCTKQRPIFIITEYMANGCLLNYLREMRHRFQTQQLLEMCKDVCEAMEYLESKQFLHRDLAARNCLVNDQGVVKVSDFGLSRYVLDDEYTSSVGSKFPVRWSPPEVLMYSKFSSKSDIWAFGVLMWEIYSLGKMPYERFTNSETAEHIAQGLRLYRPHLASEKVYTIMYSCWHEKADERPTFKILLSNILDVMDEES
T2 sequence (Q06187 whole entry C481S): as the sequence (Q06187 whole entry) above, with C481S counted along it

Row | DC50 (WT BTK protein) [nM] | DC50 (C481S BTK protein) [nM] | Compound
1 | 0.1 to 10 | 10 to 1000 | Cc1cccc(C)c1Nc1nn(C)c2nc(Nc3ccc4c(c3)CN(C(=O)C3CCN(C(=O)CNc5ccc6nnn(C7CCC(=O)NC7=O)c(=O)c6c5)CC3)CC4)ncc12 (centres unmarked) [Compound 57]
2 | 0.1 to 10 | 10 to 1000 | Cc1cccc(C)c1Nc1nn(C)c2nc(Nc3ccc4c(c3)CN(C(=O)C3CCN(c5ccc6nnn(C7CCC(=O)NC7=O)c(=O)c6c5)CC3)CC4)ncc12 (centres unmarked) [Compound 58, 3-(6-(4-(7-((3-((2,6-Dimethylphenyl)amino)-1-methyl-1H-pyrazolo[3,4-d]pyrimidin-6-yl)amino)-1,2,3,4-tetrahydroisoquinoline-2-carbonyl)piperidin-1-yl)-4-oxobenzo[d][1,2,3]triazin-3 (4H)-yl)piperidin-2,6-one]
3 | 0.1 to 10 | 0.1 to 10 | Cc1cccc(C)c1Nc1nn(C)c2nc(Nc3ccc4c(c3)CN(CC3CCN(C(=O)C5CCN(c6ccc7c(=O)n(C8CCC(=O)NC8=O)nnc7c6)CC5)CC3)CC4)ncc12 (centres unmarked) [Compound 61, 3-(7-(4-(4-((7-((3-((2,6-Dimethylphenyl)amino)-1-methyl-1H-pyrazolo[3,4-d]pyrimidin-6-yl)amino)-3,4-dihydroisoquinolin-2 (1H)-yl)methyl)piperidine-1-carbonyl)piperidin-1-yl)-4-oxobenzo[d][1,2,3]triazin-3 (4H)-yl)piperidin-2,6-one]
4 | 10 to 1000 | 10 to 1000 | Cc1cccc(C)c1Nc1nn(C)c2nc(Nc3ccc4c(c3)CN(C(=O)C3CCN(c5ccc6c(c5)C(=O)N(C5CCC(=O)NC5=O)C6=O)CC3)CC4)ncc12 (centres unmarked) [Compound 56, 5-(4-(7-((3-((2,6-Dimethylphenyl)amino)-1-methyl-1H-pyrazolo[3,4-d]pyrimidin-6-yl)amino)-1,2,3,4-tetrahydroisoquinoline-2-carbonyl)piperidin-1-yl)-2-(2,6-dioxopiperidin-3-yl)isoindoline-1,3-dione]

The next lines start with the compound.

Row | Compound | DC50 (WT BTK protein) [nM] | DC50 (C481S BTK protein) [nM]
5 | Cc1cccc(C)c1Nc1nn(C)c2nc(Nc3ccc4c(c3)CN(C(=O)CCCCCNc3cccc5c3C(=O)N(C3CCC(=O)NC3=O)C5=O)CC4)ncc12 (centres unmarked) [Compound 1, 4-((6-(7-((3-((2,6-Dimethylphenyl)amino)-1-methyl-1H-pyrazolo[3,4-d]pyrimidin-6-yl)amino)-3,4-dihydroisoquinolin-2 (1H)-yl)-6-oxohexyl)amino)-2-(2,6-dioxopiperidin-3-yl)isoindoline-1,3-dione] | 10 to 1000 | > 10000
6 | Cc1cccc(C)c1Nc1nn(C)c2nc(Nc3ccc4c(c3)CN(C(=O)c3cn(CCOCCOCCOCCNC(=O)CNc5cccc6c5C(=O)N(C5CCC(=O)NC5=O)C6=O)nn3)CC4)ncc12 (centres unmarked) [Compound 19, N-(2-(2-(2-(2-(4-(7-((3-((2,6-Dimethylphenyl)amino)-1-methyl-1H-pyrazolo[3,4-d]pyrimidin-6-yl)amino)-1,2,3,4-tetrahydroisoquinoline-2-carbonyl)-1H-1,2,3-triazol-1-yl)ethoxy)ethoxy)ethoxy)ethyl)-2-((2-(2,6-dioxopiperidin-3-yl)-1,3-dioxoisoindolin-4-yl)amino)acetamide] | 10 to 1000 | > 10000
7 | Cc1cccc(C)c1Nc1nn(C)c2nc(Nc3ccc4c(c3)CN(CC3CCN(C(=O)CNc5ccc6c(=O)n(C7CCC(=O)NC7=O)nnc6c5)CC3)CC4)ncc12 (centres unmarked) [Compound 63, 3-(7-((2-(4-((7-((3-((2,6-Dimethylphenyl)amino)-1-methyl-1H-pyrazolo[3,4-d]pyrimidin-6-yl)amino)-3,4-dihydroisoquinolin-2 (1H)-yl)methyl)piperidin-1-yl)-2-oxoethyl)amino)-4-oxobenzo[d][1,2,3]triazin-3 (4H)-yl)piperidin-2,6-one] | 0.1 to 10 | 10 to 1000
8 | Cc1cccc(C)c1Nc1nn(C)c2nc(Nc3ccc4c(c3)CN(CC3CCN(c5ccc6c(c5)C(=O)N(C5CCC(=O)NC5=O)C6=O)CC3)CC4)ncc12 (centres unmarked) [Compound 29, 5-(4-((7-((3-((2,6-Dimethylphenyl)amino)-1-methyl-1H-pyrazolo[3,4-d]pyrimidin-6-yl)amino)-3,4-dihydroisoquinolin-2 (1H)-yl)methyl)piperidin-1-yl)-2-(2,6-dioxopiperidin-3-yl)isoindoline-1,3-dione] | 0.1 to 10 | 10 to 1000
9 | Cc1cccc(C)c1Nc1nn(C)c2nc(Nc3ccc4c(c3)CN(C(=O)CCOCCOCCOCCOCCNc3ccc5c(c3)C(=O)N(C3CCC(=O)NC3=O)C5=O)CC4)ncc12 (centres unmarked) [Compound 15, 5-((15-(7-((3-((2,6-Dimethylphenyl)amino)-1-methyl-1H-pyrazolo[3,4-d]pyrimidin-6-yl)amino)-3,4-dihydroisoquinolin-2 (1H)-yl)-15-oxo-3,6,9,12-tetraoxapentadecyl)amino)-2-(2,6-dioxopiperidin-3-yl)isoindoline-1,3-dione] | 0.1 to 10 | 1000 to 10000
10 | Cc1cccc(C)c1Nc1nn(C)c2nc(Nc3ccc4c(c3)CN(CC3CCN(Cc5ccc6nnn(C7CCC(=O)NC7=O)c(=O)c6c5)CC3)CC4)ncc12 (centres unmarked) [Compound 46] | 10 to 1000 | 10 to 1000
11 | Cc1cccc(C)c1Nc1nn(C)c2nc(Nc3ccc4c(c3)CN(CCOCCNC(=O)CN3CCN(c5ccc6c(c5)C(=O)N(C5CCC(=O)NC5=O)C6=O)CC3)CC4)ncc12 (centres unmarked) [Compound 20, N-(2-(2-(7-((3-((2,6-Dimethylphenyl)amino)-1-methyl-1H-pyrazolo[3,4-d]pyrimidin-6-yl)amino)-3,4-dihydroisoquinolin-2 (1H)-yl)ethoxy)ethyl)-2-(4-(2-(2,6-dioxopiperidin-3-yl)-1,3-dioxoisoindolin-5-yl)piperazin-1-yl)acetamide] | 0.1 to 10 | 1000 to 10000
12 | Cc1cccc(C)c1Nc1nn(C)c2nc(Nc3ccc4c(c3)CN(C(=O)COCCOCCOCCOCCNC(=O)COc3ccc5c(c3)C(=O)N(C3CCC(=O)NC3=O)C5=O)CC4)ncc12 (centres unmarked) [Compound 9, N-(14-(7-((3-((2,6-Dimethylphenyl)amino)-1-methyl-1H-pyrazolo[3,4-d]pyrimidin-6-yl)amino)-3,4-dihydroisoquinolin-2 (1H)-yl)-14-oxo-3,6,9,12-tetraoxatetradecyl)-2-((2-(2,6-dioxopiperidin-3-yl)-1,3-dioxoisoindolin-5-yl)oxy)acetamide] | 10 to 1000 | > 10000
13 | Cc1cccc(C)c1Nc1nn(C)c2nc(Nc3ccc4c(c3)CN(CCOCCNC(=O)C3CN(c5ccc6c(c5)C(=O)N(C5CCC(=O)NC5=O)C6=O)C3)CC4)ncc12 (centres unmarked) [Compound 27, N-(2-(2-(7-((3-((2,6-Dimethylphenyl)amino)-1-methyl-1H-pyrazolo[3,4-d]pyrimidin-6-yl)amino)-3,4-dihydroisoquinolin-2 (1H)-yl)ethoxy)ethyl)-1-(2-(2,6-dioxopiperidin-3-yl)-1,3-dioxoisoindolin-5-yl)azetidine-3-carboxamide] | 0.1 to 10 | 1000 to 10000

From patent publication US12161722B2, “Bifunctional heterocyclic compound having BTK degradation function via ubiquitin proteasome pathway, and use thereof” (KOREA RESEARCH INSTITUTE OF CHEMICAL TECHNOLOGY, priority 2021, dated 2024)
